Data reported in patent US20210030758A1, “TREATMENT OF CANCERS HAVING DRIVING ONCOGENIC MUTATIONS” (G1 Therapeutics, Inc., priority 2018, published 2021).

Columns and labels:
[1] = long-term stability study of solid form; assay type: physicochemical; details: 25° C. and 60% relative humidity
Method: (§1) Form B is stable under thermal stress of 60° C. for 7 days. […] In one embodiment isolated Compound IA Form B is stable for at least about 6, 7, 8, 9, 10, 11, 12, 14, 16, 18, 20, 22, or 24 months.

[2] = thermal stress stability of solid form; assay type: physicochemical; details: 60° C. for 7 days
Method: as §1

[3] = dynamic vapor sorption experiment; assay type: physicochemical; details: exposure to 90% relative humidity
NSCLC PDX models = experiment: NSCLC PDX model panel, tumor growth inhibition; assay type: in vivo; details: for sensitivity of PDX models by genetic alteration: 100 mg/kg
Method: NSCLC PDX models (n=60) were treated for up to 28 days with daily oral doses of vehicle or Compound 1 (100 mg/kg). Tumor growth inhibition (TGI) was calculated when tumors reached pre-specified tumor burden or on day 28. Genetic alterations from pre-treated samples were evaluated using FoundationOne. 58% TGI was used as the responder/non-responder cutoff for correlation analysis.

[4] = system: EML4-ALK NSCLC PDX tumors (Champions PDX model CTG-0852); assay type: in vivo; details: single agents, oral once daily, after 60 days; Compound I 50 mg/kg, crizotinib 20 mg/kg
[5] = system: LC2/ad non-small cell lung cancer cells expressing an oncogenic CCDC6-RET fusion; experiment: LC2/ad cell proliferation by CellTiter-Glo; assay type: cell-based
Method: LC2/ad non-small cell lung cancer cells expressing an oncogenic CCDC6-RET fusion were dosed with increasing concentrations of Compound 1, a RET inhibitor selected from pralsetinib (BLU-667) or agerafenib (RXDX-105), or RET inhibitor+300 nM Compound 1. Cell proliferation was measured by CellTiter-Glo after six days.

## CC(C)N1CCN(c2ccc(Nc3ncc4cc5n(c4n3)C3(CCCCC3)CNC5=O)nc2)CC1 [Compound IA Form B]
[1]
  long-term stability, time stable: at least 1 year
[2]
  stability under thermal stress: stable
[3]
  solid form after dynamic vapor sorption: remained in Form B

## CC(C)N1CCN(c2ccc(Nc3ncc4cc5n(c4n3)C3(CCCCC3)CNC5=O)nc2)CC1 [Compound I]
NSCLC PDX models; NSCLC PDX models, adenocarcinoma, 100 mg/kg daily oral, up to 28 days
  median TGI for adenocarcinoma: 73%
NSCLC PDX models; NSCLC PDX models, squamous cell carcinoma, 100 mg/kg daily oral, up to 28 days
  median TGI for squamous cell carcinoma: 66%
NSCLC PDX models; models with genetic alterations such as KRAS and EGFR
  sensitivity of PDX models by genetic alteration: increased sensitivity
NSCLC PDX models; models with genetic alterations such as RB1
  sensitivity of PDX models by genetic alteration: resistance
[4]
  TGI: 87%

## CO[C@]1(C(=O)N[C@@H](C)c2ccc(-n3cc(F)cn3)nc2)CC[C@H](c2nc(C)cc(Nc3cc(C)[nH]n3)n2)CC1 [pralsetinib, Pralsetinib]
[5]
  300 nM relative to the IC50 for cellular proliferation: > 10 fold
